According to ChEMBL document CHEMBL3638030, “IC50 data for the L-type calcium channel extracted from a set of literature articles”:

Experiments:
[1] = biological target: T1, Voltage-dependent L-type calcium channel subunit alpha-1C (Cavia porcellus, UniProt O35505); assay: Inhibition of Cav1.2 calcium current measured using whole cell patch clamp in guinea pig tracheal smooth muscle cells; assay type: functional, tissue-based, Trachea; parameters: ca sol conc 5 - Barium mM, temp 35 C
[2] = biological target: T2, Voltage-dependent L-type calcium channel subunit alpha-1C (Rattus norvegicus, UniProt P22002); assay: Inhibition of Cav1.2 calcium current measured using whole cell patch clamp in rat Artery myocytes; assay type: functional, cell-based, Tail; parameters: ca sol conc 5 mM, temp 20-22 C
T2 sequence (P22002 whole entry): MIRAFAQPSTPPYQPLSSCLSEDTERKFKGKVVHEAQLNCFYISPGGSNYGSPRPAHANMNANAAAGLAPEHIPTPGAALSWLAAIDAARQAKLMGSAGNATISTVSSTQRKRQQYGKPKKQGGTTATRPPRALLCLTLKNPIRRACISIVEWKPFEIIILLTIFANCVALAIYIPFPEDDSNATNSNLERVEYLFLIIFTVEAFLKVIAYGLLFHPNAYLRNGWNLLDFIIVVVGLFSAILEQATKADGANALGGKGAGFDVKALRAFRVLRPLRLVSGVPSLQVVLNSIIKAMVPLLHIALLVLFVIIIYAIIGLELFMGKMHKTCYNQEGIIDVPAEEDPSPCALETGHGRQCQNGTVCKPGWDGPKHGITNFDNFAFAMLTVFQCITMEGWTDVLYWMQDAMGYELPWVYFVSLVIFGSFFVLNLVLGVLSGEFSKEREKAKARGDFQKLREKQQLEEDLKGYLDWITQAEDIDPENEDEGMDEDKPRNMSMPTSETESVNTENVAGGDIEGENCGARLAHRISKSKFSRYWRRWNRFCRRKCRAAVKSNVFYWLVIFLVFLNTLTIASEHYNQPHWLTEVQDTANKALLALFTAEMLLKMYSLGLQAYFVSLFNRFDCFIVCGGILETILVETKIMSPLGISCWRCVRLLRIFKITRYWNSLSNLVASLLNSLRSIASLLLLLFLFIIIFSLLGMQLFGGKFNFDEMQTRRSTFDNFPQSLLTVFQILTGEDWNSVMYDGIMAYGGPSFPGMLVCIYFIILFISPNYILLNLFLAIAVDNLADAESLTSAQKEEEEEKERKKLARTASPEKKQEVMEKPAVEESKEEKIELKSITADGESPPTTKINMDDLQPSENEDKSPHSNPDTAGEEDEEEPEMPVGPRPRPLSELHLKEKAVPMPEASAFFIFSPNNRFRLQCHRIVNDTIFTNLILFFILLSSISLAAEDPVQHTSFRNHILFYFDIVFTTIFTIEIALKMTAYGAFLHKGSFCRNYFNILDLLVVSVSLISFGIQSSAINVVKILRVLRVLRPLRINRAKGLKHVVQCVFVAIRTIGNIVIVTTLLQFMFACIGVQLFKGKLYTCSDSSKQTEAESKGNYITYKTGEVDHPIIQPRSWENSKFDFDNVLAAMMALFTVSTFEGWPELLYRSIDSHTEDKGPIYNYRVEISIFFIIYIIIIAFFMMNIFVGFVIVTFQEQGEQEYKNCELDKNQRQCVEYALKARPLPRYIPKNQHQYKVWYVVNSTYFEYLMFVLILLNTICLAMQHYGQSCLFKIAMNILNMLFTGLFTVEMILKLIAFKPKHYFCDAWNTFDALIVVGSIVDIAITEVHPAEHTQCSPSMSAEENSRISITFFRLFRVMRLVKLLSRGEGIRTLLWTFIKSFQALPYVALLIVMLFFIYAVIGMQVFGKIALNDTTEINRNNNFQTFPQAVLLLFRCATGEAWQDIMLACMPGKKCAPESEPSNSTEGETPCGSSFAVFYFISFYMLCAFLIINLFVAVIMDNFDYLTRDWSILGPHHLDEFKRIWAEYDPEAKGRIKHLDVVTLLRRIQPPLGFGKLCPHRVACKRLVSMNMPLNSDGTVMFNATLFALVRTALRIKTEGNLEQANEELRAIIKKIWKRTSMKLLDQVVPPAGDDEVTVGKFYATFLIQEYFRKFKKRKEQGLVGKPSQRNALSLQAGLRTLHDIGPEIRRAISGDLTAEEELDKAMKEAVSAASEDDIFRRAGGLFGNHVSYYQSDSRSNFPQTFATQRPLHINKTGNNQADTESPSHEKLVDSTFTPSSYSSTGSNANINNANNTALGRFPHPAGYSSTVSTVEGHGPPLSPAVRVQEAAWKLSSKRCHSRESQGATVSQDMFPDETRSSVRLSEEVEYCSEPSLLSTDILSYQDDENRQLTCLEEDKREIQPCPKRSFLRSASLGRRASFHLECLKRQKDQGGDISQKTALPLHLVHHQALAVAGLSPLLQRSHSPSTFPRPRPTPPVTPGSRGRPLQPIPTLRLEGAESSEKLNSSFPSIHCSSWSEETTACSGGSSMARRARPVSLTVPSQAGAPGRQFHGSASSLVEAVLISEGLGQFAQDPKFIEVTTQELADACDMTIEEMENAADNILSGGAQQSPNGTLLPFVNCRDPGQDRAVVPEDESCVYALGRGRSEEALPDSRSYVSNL

[3] = biological target: T1, Voltage-dependent L-type calcium channel subunit alpha-1C; assay: Inhibition of Cav1.2 calcium current measured using whole cell patch clamp in guinea pig atrial myocytes; assay type: functional, cell-based, Heart, Cardiac Muscle Cell; parameters: ca sol conc 1.8 mM, temp 36 pm 1 C
[4] = biological target: T3, Voltage-dependent L-type calcium channel subunit alpha-1C (Mus musculus, UniProt Q01815); assay: Inhibition of Cav1.2 calcium current measured using in mouse dorsal root ganglion neuron; assay type: functional, tissue-based; parameters: temp 20-23 C
[5] = biological target: T1, Voltage-dependent L-type calcium channel subunit alpha-1C; assay: (§1) Inhibition of Cav1.2 calcium current measured using whole cell patch clamp in guinea pig ventricular myocytes; assay type: functional, cell-based, Heart, Ventricular myocyte; parameters: ca sol conc 1.8 mM, temp 25-27 C
[6] = biological target: T2, Voltage-dependent L-type calcium channel subunit alpha-1C; assay: (§2) Inhibition of Cav1.2 calcium current measured using whole cell patch clamp in rat ventricular myocytes; assay type: functional, cell-based, Heart, Ventricular myocyte; parameters: ca sol conc 2 mM, temp 22-24 C
[7] = biological target: Voltage-dependent L-type calcium channel subunit alpha-1C (Oryctolagus cuniculus, UniProt P15381); assay: Inhibition of Cav1.2 calcium current measured using whole cell patch clamp in rabbit ventricular myocytes; assay type: functional, cell-based, Heart, Ventricular myocyte; parameters: ca sol conc 1.8 mM, temp 34 C
[8] = biological target: T2, Voltage-dependent L-type calcium channel subunit alpha-1C; assay: (§3) Inhibition of Cav1.2 calcium current measured using whole cell patch clamp in rat myocyte; assay type: functional, Heart, Cardiac Muscle Cell; parameters: ca sol conc 1.2 mM, temp 22 C
[9] = biological target: T2, Voltage-dependent L-type calcium channel subunit alpha-1C; assay: Inhibition of Cav1.2 calcium current measured using whole cell patch clamp in rat Vascular smooth muscle cells; assay type: functional, cell-based; parameters: ca sol conc 0 (Barium used instead) mM, temp 22 C
[10] = biological target: T1, Voltage-dependent L-type calcium channel subunit alpha-1C; assay: Inhibition of Cav1.2 calcium current measured using whole Cell patch clamp in guinea pig ventricular myocytes; assay type: functional, cell-based, Heart, Ventricular myocyte; parameters: ca sol conc 1.8 mM
[11] = biological target: T2, Voltage-dependent L-type calcium channel subunit alpha-1C; assay: as §2; assay type: functional, cell-based, Heart, Ventricular myocyte; parameters: ca sol conc 1.8 mM, temp 22-26 C
[12] = biological target: T1, Voltage-dependent L-type calcium channel subunit alpha-1C; assay: as §1; assay type: functional, cell-based, Heart, Ventricular myocyte; parameters: ca sol conc 1.8 mM
[13] = biological target: T1, Voltage-dependent L-type calcium channel subunit alpha-1C; assay: as §1; assay type: functional, cell-based, Heart, Ventricular myocyte; parameters: ca sol conc 1.8 mM; remark: listed apart in the source
[14] = biological target: T1, Voltage-dependent L-type calcium channel subunit alpha-1C; assay: as §1; assay type: functional, cell-based, Heart, Ventricular myocyte; parameters: ca sol conc 1.8 mM, temp 36 C
[15] = biological target: T2, Voltage-dependent L-type calcium channel subunit alpha-1C; assay: as §2; assay type: functional, cell-based, Heart, Ventricular myocyte; parameters: ca sol conc 1 mM, temp 34 C
[16] = biological target: T3, Voltage-dependent L-type calcium channel subunit alpha-1C; assay: (§4) Inhibition of Cav1.2 calcium current measured using whole cell patch clamp in mouse ventricular myocytes; assay type: functional, cell-based, Heart, Ventricular myocyte; parameters: ca sol conc 2 mM, temp room
[17] = biological target: T3, Voltage-dependent L-type calcium channel subunit alpha-1C; assay: as §4; assay type: functional, cell-based, Heart, Ventricular myocyte; parameters: ca sol conc 2 mM, temp room; remark: listed apart in the source
[18] = biological target: T2, Voltage-dependent L-type calcium channel subunit alpha-1C; assay: as §2; assay type: functional, cell-based, Heart, Ventricular myocyte; parameters: ca sol conc 1.8 mM, temp 25 C
[19] = biological target: T2, Voltage-dependent L-type calcium channel subunit alpha-1C; assay: as §3; assay type: functional, Heart; parameters: ca sol conc 1.8 mM, temp 20-25 C; details: cardiac muscle cell
[20] = biological target: Voltage-dependent L-type calcium channel subunit alpha-1C (Homo sapiens, UniProt Q13936); assay: Inhibition of Cav1.2 calcium current measured using whole cell patch clamp in human atrial myocytes; assay type: functional, cell-based, Heart, Cardiac Muscle Cell; parameters: ca sol conc 1.8 mM, temp 25 C

T1 sequence (O35505 whole entry): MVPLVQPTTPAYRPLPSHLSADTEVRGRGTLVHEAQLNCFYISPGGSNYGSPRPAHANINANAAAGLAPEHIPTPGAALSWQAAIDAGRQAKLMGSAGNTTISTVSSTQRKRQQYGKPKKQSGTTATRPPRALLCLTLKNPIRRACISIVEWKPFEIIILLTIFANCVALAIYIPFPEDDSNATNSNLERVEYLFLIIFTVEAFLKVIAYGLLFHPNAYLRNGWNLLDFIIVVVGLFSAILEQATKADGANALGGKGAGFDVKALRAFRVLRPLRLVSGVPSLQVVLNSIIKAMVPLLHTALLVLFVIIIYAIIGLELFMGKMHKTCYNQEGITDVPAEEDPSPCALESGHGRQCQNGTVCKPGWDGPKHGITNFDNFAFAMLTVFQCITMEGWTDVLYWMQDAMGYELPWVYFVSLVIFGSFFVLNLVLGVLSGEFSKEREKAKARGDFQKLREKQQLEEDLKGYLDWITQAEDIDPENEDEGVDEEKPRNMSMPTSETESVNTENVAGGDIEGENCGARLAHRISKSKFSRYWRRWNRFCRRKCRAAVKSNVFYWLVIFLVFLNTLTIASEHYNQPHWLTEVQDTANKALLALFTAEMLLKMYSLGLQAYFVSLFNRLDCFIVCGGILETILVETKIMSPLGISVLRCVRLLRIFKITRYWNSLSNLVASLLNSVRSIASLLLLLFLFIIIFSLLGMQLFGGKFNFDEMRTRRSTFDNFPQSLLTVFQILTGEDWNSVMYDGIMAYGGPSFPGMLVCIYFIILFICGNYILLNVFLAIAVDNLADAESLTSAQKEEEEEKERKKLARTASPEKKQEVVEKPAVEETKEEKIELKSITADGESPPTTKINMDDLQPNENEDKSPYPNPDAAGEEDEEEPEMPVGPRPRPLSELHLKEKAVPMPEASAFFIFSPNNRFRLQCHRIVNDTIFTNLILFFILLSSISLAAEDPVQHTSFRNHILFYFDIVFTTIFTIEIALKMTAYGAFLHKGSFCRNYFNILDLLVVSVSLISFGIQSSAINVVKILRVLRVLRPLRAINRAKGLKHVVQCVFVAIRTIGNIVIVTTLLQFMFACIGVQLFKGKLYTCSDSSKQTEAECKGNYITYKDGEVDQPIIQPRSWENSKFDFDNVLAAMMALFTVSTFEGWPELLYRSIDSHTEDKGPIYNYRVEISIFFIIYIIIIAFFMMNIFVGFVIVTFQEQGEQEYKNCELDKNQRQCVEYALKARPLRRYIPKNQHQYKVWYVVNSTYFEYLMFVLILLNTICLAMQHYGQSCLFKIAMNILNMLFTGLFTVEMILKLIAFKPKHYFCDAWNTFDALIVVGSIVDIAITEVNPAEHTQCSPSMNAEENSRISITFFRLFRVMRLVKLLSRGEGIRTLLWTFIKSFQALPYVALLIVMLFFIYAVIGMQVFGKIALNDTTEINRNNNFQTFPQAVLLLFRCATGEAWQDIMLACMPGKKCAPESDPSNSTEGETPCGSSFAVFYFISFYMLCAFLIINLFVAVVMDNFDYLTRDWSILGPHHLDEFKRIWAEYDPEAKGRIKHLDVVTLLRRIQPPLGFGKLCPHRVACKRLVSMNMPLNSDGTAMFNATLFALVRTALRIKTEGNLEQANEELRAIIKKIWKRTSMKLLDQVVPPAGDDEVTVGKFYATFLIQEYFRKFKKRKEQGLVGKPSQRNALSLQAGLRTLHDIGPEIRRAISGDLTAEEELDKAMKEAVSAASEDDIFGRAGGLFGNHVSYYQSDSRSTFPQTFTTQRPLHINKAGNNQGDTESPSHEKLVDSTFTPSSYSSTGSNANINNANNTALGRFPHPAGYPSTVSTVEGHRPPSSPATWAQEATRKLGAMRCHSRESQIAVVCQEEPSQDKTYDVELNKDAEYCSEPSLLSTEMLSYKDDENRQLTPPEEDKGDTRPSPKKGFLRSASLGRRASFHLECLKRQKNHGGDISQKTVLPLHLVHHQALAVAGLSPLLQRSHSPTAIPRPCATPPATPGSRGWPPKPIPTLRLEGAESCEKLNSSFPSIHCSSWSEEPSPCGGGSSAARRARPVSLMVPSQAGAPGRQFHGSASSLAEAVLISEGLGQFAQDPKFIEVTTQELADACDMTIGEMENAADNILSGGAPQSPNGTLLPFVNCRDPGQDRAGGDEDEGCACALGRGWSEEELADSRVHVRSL

With `CN1CCCC(n2nc(Cc3ccc(Cl)cc3)c3ccccc3c2=O)CC1` (stereo not drawn) [AZELASTINE] the IC50 [1] was 8 µM.

`O=c1cc(-c2ccccc2)oc2cc(O)c(O)c(O)c12` [BAICALEIN] showed an IC50 [2] of 85.1 µM.

With `CC(C)COCC(CN(Cc1ccccc1)c1ccccc1)N1CCCC1` (stereo not drawn) [BEPRIDIL] the IC50 [3] was 1.55 µM.

`CC(C)(c1ccc(O)cc1)c1ccc(O)cc1` [BISPHENOL A] gave an IC50 [4] of 35 µM.

Work on `O=C(/C=C/c1ccc(O)c(O)c1)OCCc1ccccc1` [CAFFEIC ACID PHENETHYL ESTER] yielded an IC50 [5] of 1.1 µM.

With `C=C(C)[C@@H]1CCC(C)=C[C@H]1c1c(O)cc(CCCCC)cc1O` [CANNABIDIOL] the IC50 [6] was 0.1 µM.

`COc1ccccc1OCCNCC(O)COc1cccc2[nH]c3ccccc3c12` (stereo not drawn) [CARVEDILOL] gave an IC50 [7] of 3.59 µM.

Molecule `CCC1=C[C@@H]2CN3CCc4c([nH]c5ccccc45)[C@@](C(=O)OC)(C2)[C@@H]13` [CATHARANTHINE BASE] has an IC50 [8] of 224 µM and an IC50 [9] of 8.4 µM.

With `Cc1ccc(-c2cc(C(F)(F)F)nn2-c2ccc(S(N)(=O)=O)cc2)cc1` [CELECOXIB] the IC50 [10] was 10.6 µM.

With `Oc1c(CN2CCCC2)cc(Nc2ncnc3ccccc23)cc1CN1CCCC1` [CHANGROLIN] the IC50 [11] was 74.7 µM.

Work on `CN1CCC(=C2c3ccccc3C=Cc3ccccc32)CC1` [CYPROHEPTADINE] yielded an IC50 [12] of 7.75 µM and an IC50 [13] of 42.2 µM.

In the case of `CCCCc1oc2ccc(NS(C)(=O)=O)cc2c1C(=O)c1ccc(OCCCN(CCCC)CCCC)cc1` [DRONEDARONE], the IC50 [14] is reported as 0.4 µM.

`COC(=O)CCc1ccc(OCC(O)CNC(C)C)cc1` (stereo not drawn) [ESMOLOL] was tested, and the IC50 [15] was 450 µM.

For `COc1ccc(CCN(C)CCCOc2ccc(S(=O)(=O)c3c(C(C)C)cn4ccccc34)cc2)cc1OC` [FANTOFARONE], the IC50 [16] was 0.15 µM and the IC50 [17] was 0.0014 µM.

`O=C(O)c1ccccc1Nc1ccccc1` [FENAMIC ACID] showed an IC50 [18] of 470 µM.

`CCC(C)c1ccccc1OC(=O)NC` (stereo not drawn) [FENOBUCARB] was tested, and the IC50 [13] was 520 µM.

In the case of `OC(Cn1cncn1)(Cn1cncn1)c1ccc(F)cc1F` [FLUCONAZOLE], the IC50 [19] is reported as “inactive at 10uM. Original reference for datapoint is pubmed_id: 22975497”.

In the case of `O=c1c(-c2ccc(O)cc2)coc2cc(O)cc(O)c12` [GENISTEIN], the IC50 [2] is reported as 57.5 µM.

In the case of `CCC(C)n1ncn(-c2ccc(N3CCN(c4ccc(OCC5COC(Cn6cncn6)(c6ccc(Cl)cc6Cl)O5)cc4)CC3)cc2)c1=O` (stereo not drawn) [ITRACONAZOLE], the IC50 [19] is reported as “inactive at 10uM. Original reference for datapoint is pubmed_id: 22975497”.

Work on `CNC1(c2ccccc2Cl)CCCCC1=O` (stereo not drawn) [KETAMINE] yielded an IC50 [20] of 1.8 µM.
